Data published in the NIST ThermoML archive (doi:10.1016/j.jct.2015.07.012).
± gives the expanded uncertainty stated by the source.

Experiments:
[1] = refractive index (Na D-line) (dimensionless); details: 303.15 K; 101.33 kPa; Liquid; Standard Abbe refractometry
[2] = 101.33 kPa, Liquid; for speed of sound: Sing-around technique in a fixed-path interferometer; for mass density: Vibrating tube method
[3] = wn = mass fraction of the nth substance listed; details: 298.15 K, 100 kPa, Liquid; for speed of sound: Frequency=3 MHz, Sing-around technique in a fixed-path interferometer; for mass density: Vibrating tube method

| Structure (SMILES) | refractive index [1] | speed of sound ([2]; 293.15 K) [m/s] | mass density ([2]; 293.15 K) [kg/m3] | speed of sound ([2]; 298.15 K) [m/s] | mass density ([2]; 298.15 K) [kg/m3] | speed of sound ([2]; 303.15 K) [m/s] | mass density ([2]; 303.15 K) [kg/m3] | speed of sound ([2]; 308.15 K) [m/s] | mass density ([2]; 308.15 K) [kg/m3] | speed of sound ([2]; 313.15 K) [m/s] | mass density ([2]; 313.15 K) [kg/m3] | speed of sound ([2]; 318.15 K) [m/s] | mass density ([2]; 318.15 K) [kg/m3] | speed of sound ([2]; 323.15 K) [m/s] | mass density ([2]; 323.15 K) [kg/m3] | speed of sound ([2]; 328.15 K) [m/s] | mass density ([2]; 328.15 K) [kg/m3] | speed of sound ([2]; 333.15 K) [m/s] | mass density ([2]; 333.15 K) [kg/m3] | speed of sound ([2]; 338.15 K) [m/s] | also measured |
| --- | --- | --- | --- | --- | --- | --- | --- | --- | --- | --- | --- | --- | --- | --- | --- | --- | --- | --- | --- | --- | --- |
| CCCCCCC(=O)[O-].C[NH2+]C1CCCCC1 [N-methylcyclohexylammonium heptanoate] | 1.4636 ± 0.0012 | 1478.3 ± 8.6 | 945.8 ± 1.9 | 1458.5 ± 8.6 | 942.18 ± 1.8 | 1440.2 ± 8.6 | 938.51 ± 1.8 | 1422.2 ± 8.6 | 934.81 ± 1.8 | 1404.5 ± 8.6 | 931.05 ± 1.8 | 1385.1 ± 8.6 | 927.26 ± 1.8 | 1368.6 ± 8.6 | 923.44 ± 1.8 | 1351.4 ± 8.6 | 919.59 ± 1.8 | 1334.1 ± 8.6 | 915.71 ± 1.8 | 1316.1 ± 8.6 | mass density ([2]; 338.15 K): 911.8 ± 1.8 kg/m3; speed of sound ([2]; 343.15 K): 1299.1 ± 8.6 m/s; mass density ([2]; 343.15 K): 907.85 ± 1.8 kg/m3 |
| CCCCCCCC(=O)[O-].C[NH2+]C1CCCCC1 [N-methylcyclohexylammonium octanoate] + O | – | – | – | – | – | – | – | – | – | – | – | – | – | – | – | – | – | – | – | – | speed of sound ([3]; w2 = 0.002193): 1453.1 ± 8.6 m/s; speed of sound ([3]; w2 = 0.004032): 1457.6 ± 8.6 m/s; speed of sound ([3]; w2 = 0.005228): 1459.7 ± 8.6 m/s; speed of sound ([3]; w2 = 0.007628): 1462.3 ± 8.6 m/s; speed of sound ([3]; w2 = 0.009495): 1463.2 ± 8.6 m/s; mass density ([3]; w2 = 0.002193): 935.17 ± 1.8 kg/m3; mass density ([3]; w2 = 0.004032): 935.76 ± 1.8 kg/m3; mass density ([3]; w2 = 0.005228): 936.14 ± 1.8 kg/m3; mass density ([3]; w2 = 0.007628): 937.01 ± 1.8 kg/m3; mass density ([3]; w2 = 0.009495): 937.53 ± 1.8 kg/m3 |
| CCCCC(=O)[O-].C[NH2+]C1CCCCC1 [N-methylcyclohexylammonium pentanoate] | 1.4627 ± 0.0012 | 1495.3 ± 8.6 | 965.76 ± 1.9 | 1475.7 ± 8.6 | 962.21 ± 1.9 | 1456.7 ± 8.6 | 958.63 ± 1.9 | 1438.2 ± 8.6 | 955.01 ± 1.9 | 1420.1 ± 8.6 | 951.34 ± 1.9 | 1402.1 ± 8.6 | 947.63 ± 1.9 | 1384.2 ± 8.6 | 943.88 ± 1.9 | 1366.5 ± 8.6 | 940.1 ± 1.8 | 1348.8 ± 8.6 | 936.29 ± 1.8 | 1331.1 ± 8.6 | mass density ([2]; 338.15 K): 932.44 ± 1.8 kg/m3; speed of sound ([2]; 343.15 K): 1313.5 ± 8.6 m/s; mass density ([2]; 343.15 K): 928.54 ± 1.8 kg/m3 |
| CCCCCCCC(=O)[O-].C[NH2+]C1CCCCC1 [N-methylcyclohexylammonium octanoate] | 1.464 ± 0.0012 | 1471.6 ± 8.6 | 938.59 ± 1.8 | 1453.1 ± 8.6 | 935.17 ± 1.8 | 1435 ± 8.6 | 931.73 ± 1.8 | 1417.2 ± 8.6 | 928.25 ± 1.8 | 1399.5 ± 8.6 | 924.74 ± 1.8 | 1381 ± 8.6 | 921.21 ± 1.8 | 1363.7 ± 8.6 | 917.65 ± 1.8 | 1346.5 ± 8.6 | 914.07 ± 1.8 | 1329.4 ± 8.6 | 910.46 ± 1.8 | 1312.4 ± 8.6 | mass density ([2]; 338.15 K): 906.82 ± 1.8 kg/m3; speed of sound ([2]; 343.15 K): 1295.4 ± 8.6 m/s; mass density ([2]; 343.15 K): 903.15 ± 1.8 kg/m3 |
| CCCCCC(=O)[O-].C[NH2+]C1CCCCC1 [N-methylcyclohexylammonium hexanoate] | 1.4631 ± 0.0012 | 1484 ± 8.6 | 955.14 ± 1.9 | 1464.9 ± 8.6 | 951.65 ± 1.9 | 1446.4 ± 8.6 | 948.13 ± 1.9 | 1428.2 ± 8.6 | 944.56 ± 1.9 | 1410.3 ± 8.6 | 940.96 ± 1.8 | 1392.6 ± 8.6 | 937.32 ± 1.8 | 1375 ± 8.6 | 933.66 ± 1.8 | 1357.5 ± 8.6 | 929.96 ± 1.8 | 1340 ± 8.6 | 926.23 ± 1.8 | 1322.6 ± 8.6 | mass density ([2]; 338.15 K): 922.46 ± 1.8 kg/m3; speed of sound ([2]; 343.15 K): 1305.2 ± 8.6 m/s; mass density ([2]; 343.15 K): 918.66 ± 1.8 kg/m3 |
